Experimental data from patent US10766902B2, “Wee-1 inhibiting pyrazolopyrimidinone compounds” (ALMAC DISCOVERY LIMITED, priority 2016, dated 2020).
Read-outs that look alike come from different tables or passages of the source.

Columns and labels:
[1] = molecular target: Wee-1 kinase (Homo sapiens (Human), UniProt P30291); test: Measurement of Wee-1 kinase activity (ADP-Glo luminescence); format: biochemical
Procedure, shortened: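 Activated Wee-1 preincubated 30 min at RT with compound in Tris/MgCl2 buffer with BSA and DTT, then reacted 1 h at RT with poly(Lys,Tyr 4:1) (2.0 μg/mL) and 30 μM ATP as added aliquot. ADP formed measured by ADP-Glo luminescence; IC50 by non-linear regression of % inhibition.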

[2] = system: phosphorylation of Cdc2 at Tyr15; test: ELISA for phosphorylation of Cdc2 at Tyr15 in HT-29 / HCT-116 cells; format: cell-based; settings: Homo sapiens
Description: Method 2: Determining the Effect of Compounds on the Phosphorylation of Cdc2 at Tyr15
The colorectal cancer cell lines HT-29 and HCT-116 were purchased from the ATCC and routinely maintained in McCoy's Medium (Invitrogen) supplemented with 10% Foetal Calf Serum.
The cells were trypsinised from their growing vessel and counted, 100 μL of cell suspension containing 6000 cells was pipetted into black 96 well Co-star plates and incubated overnight to allow adherence to the surface at a temperature of 37° C. and an atmosphere of 5% CO2. Test compounds were formulated in DMSO and diluted in foetal calf serum supplemented medium. Incubating medium was removed by aspiration and diluted drug supplemented medium added to each well.
The plate was returned to the incubator for an additional eight hours at 37° C. and an atmosphere of 5% CO2. Post incubation, the drug supplemented medium was aspirated from each well and the cells were washed once in ice-cold phosphate buffered saline (PBS). 100 μL of cell lysis buffer (Cell Signalling Technologies #9803) containing 20 mM Tris, 150 mM NaCl, 1 mM EDTA, 1 mM EGTA, 1% Triton-X100, 2.5 mM sodium pyrophosphate, 1 mM glycerophosphate, 1 mM Na3VO4 and 1 μg/mL leupeptin was added to each well of the 96 well plate and incubated at 4° C. for 30 min. The samples on the plate were snap frozen at −80° C. until required. Immediately before the continuation of the assay, the sample plate was thawed and centrifuged at 4° C. for 10 min and the supernatant transferred to secondary tubes or 96 well plate.
Cell supernatant was mixed in a ratio of 1:1 with sample dilutent buffer and vortexed for one minute. 100 μL of diluted sample was pipetted into pre-coated plates containing a rabbit polyclonal antibody for phospho-cdc2 (Tyr15) (Cell Signalling Technologies PathScan kit #7176). The plate was sealed and incubated overnight at 4° C.
The plate seal was removed and the well contents aspirated, followed by 3×5 min washes with 200 μL of diluted wash buffer. Between each wash the plate was tapped firmly onto blotting paper to ensure the removal of all kit solution. 100 μL of kit detection antibody was added to each well and the plate re-sealed and incubated at 37° C. for 1 h. Post incubation the plate was washed and processed in a similar manner to that previously described.
100 μL of horseradish peroxidise-linked secondary antibody was added to each test well, the plate sealed and incubated for thirty minutes at 37° C. Post incubation, the plate was washed as previously stated, followed by the addition of 100 μL of 3,3′,5,5′ tetramethylbenzidine (TMB reagent). The plate was sealed and incubated at RT for 30 min.
100 μL of stop solution was added to each well and the underside of the plate wiped with a lint-free tissue, prior to spectrophotometric determination. Absorbance from each well was read at 450 nm within 30 min of the addition of the stop solution.
The percentage of phospho-cdc2 was calculated compared to DMSO control and plotted versus the concentration of inhibitor using GraphPad Prism. Data was fitted using non-linear regression analysis and IC50 values generated.

[3] = system: HT29 cells; test: Cell viability (CellTiter-Glo), HT29; format: cell-based; settings: Homo sapiens, HT-29; cell viability after 72 hours
Description: (§1) All cell lines (HT29, A427, A498, SKLU-1) were obtained from the American Type Culture Collection (ATCC), maintained in the recommended media supplemented with 10% (v/v) FBS, 1% (v/v) Penicillin/streptomycin and kept at 37° C. in a humidified atmosphere with 5% CO2. Cells were seeded in 96 wp format typically at a seeding density of 3500-5000 cells/well and treated after 24 hours with increasing concentration of compound from 0 to 100 μM in ½ log unit increments. Cell viability was assessed after 72 hours (HT29, A427) or after 6 days (SKLU-1, A498) by CellTiter-Glo® as recommended by the manufacturer's instructions (Promega). Analysis and EC50 values were derived using GraphPadPrism.

[4] = system: A427 cells; test: Cell viability (CellTiter-Glo), A427; format: cell-based; settings: Homo sapiens, A-427; cell viability after 72 hours
Description: as §1

[5] = system: A498 cells; test: Cell viability (CellTiter-Glo), A498; format: cell-based; settings: Homo sapiens, A498, 144 h; cell viability after 6 days
Description: as §1

[6] = system: SK-LU-1 cells; test: Cell viability (CellTiter-Glo), SK-LU-1; format: cell-based; settings: Homo sapiens, SK-LU-1, 144 h; cell viability after 6 days
Description: as §1

[7] = 8 h, Table 2, colorectal cancer cells, eight hours incubation, read-out: ELISA p-CDC2 EC50
[8] = Table 7, data obtained as described in the experimental section of the current invention, read-out: Wee-1/nM
[9] = Table 3, read-out: ELISA p-CDC2 EC50

Chain of Wee-1 kinase (P30291 whole entry): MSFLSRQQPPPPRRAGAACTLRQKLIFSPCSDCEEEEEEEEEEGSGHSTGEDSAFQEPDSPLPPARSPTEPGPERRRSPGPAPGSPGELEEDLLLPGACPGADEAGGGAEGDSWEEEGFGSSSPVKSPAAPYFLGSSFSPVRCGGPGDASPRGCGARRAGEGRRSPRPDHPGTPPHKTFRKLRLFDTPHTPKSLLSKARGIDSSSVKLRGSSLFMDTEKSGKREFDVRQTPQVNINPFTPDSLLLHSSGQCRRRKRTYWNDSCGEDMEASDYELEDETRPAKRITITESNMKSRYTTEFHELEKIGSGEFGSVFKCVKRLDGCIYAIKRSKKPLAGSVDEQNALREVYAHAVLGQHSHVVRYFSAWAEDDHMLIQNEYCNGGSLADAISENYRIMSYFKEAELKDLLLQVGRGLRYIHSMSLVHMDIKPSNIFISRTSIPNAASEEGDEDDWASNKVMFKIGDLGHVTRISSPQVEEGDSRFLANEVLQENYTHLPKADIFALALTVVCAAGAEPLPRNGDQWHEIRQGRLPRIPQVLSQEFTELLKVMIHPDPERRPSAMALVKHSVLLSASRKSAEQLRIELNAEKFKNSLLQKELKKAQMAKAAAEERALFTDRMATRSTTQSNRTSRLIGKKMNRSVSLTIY

**Q.** With `C=CCn1c(=O)c2cnc(Nc3ccc(N4CCN(C(C)C)CC4)cc3)nc2n1-c1cccc(N=S(C)(C)=O)n1` [Example 7, 1-(6-{[Dimethyl(oxo)-λ^6-sulfanylidene]amino}pyridine-2-yl)-2-(prop-2-en-1-yl)-6-({4-[4-(propan-2-yl)piperazin-1-yl]phenyl}amino)-1H,2H,3H-pyrazolo[3,4-d]pyrimidin-3-one] as the compound, how does the IC50 ([1]; read-out: Wee1 IC50) read?
**A.** The IC50 was 0.7 nM.

**Q.** What about the EC50 [2, 7] of the same compound?
**A.** The EC50 was 9 nM.

**Q.** With `C=CCn1c(=O)c2cnc(Nc3ccc(N4CCOCC4)cc3)nc2n1-c1cccc(N=S(C)(C)=O)n1` [Example 12, 1-(6-{[Dimethyl(oxo)-λ^6-sulfanylidene]amino}pyridine-2-yl)-6-{[4-(morpholin-4-yl)phenyl]amino}-2-(prop-2-en-1-yl)-1H,2H,3H-pyrazolo[3,4-d]pyrimidin-3-one] as the compound, how does the IC50 [1, 8] read?
**A.** Its IC50 is 0.5 nM.

**Q.** And the IC50 ([1]; read-out: Wee1 IC50)?
**A.** The IC50 was 0.5 nM.

**Q.** What about the EC50 [2, 7] of the same compound?
**A.** The EC50 was 26 nM.

**Q.** What about the EC50 [2, 9] of the same compound?
**A.** The EC50 was 26 nM.

**Q.** And the EC50 [3]?
**A.** The EC50 was 27 nM.

**Q.** And the EC50 [4]?
**A.** The EC50 was 27 nM.

**Q.** And the EC50 [5]?
**A.** Its EC50 is 27 nM.

**Q.** And the EC50 [6]?
**A.** The EC50 was 30 nM.

**Q.** With `C=CCn1c(=O)c2cnc(Nc3ccc(N4CCNCC4)c(Cl)c3)nc2n1-c1cccc(N=S(C)(C)=O)n1` [Example 14, 6-{[3-Chloro-4-(piperazin-1-yl)phenyl]amino}-1-(6-{[dimethyl(oxo)-λ^6-sulfanylidene]amino}pyridine-2-yl)-2-(prop-2-en-1-yl)-1H,2H,3H-pyrazolo[3,4-d]pyrimidin-3-one] as the compound, how does the IC50 ([1]; read-out: Wee1 IC50) read?
**A.** Its IC50 is 0.8 nM.

**Q.** And the EC50 [2, 7]?
**A.** Its EC50 is 5 nM.

**Q.** What does the source list for `CC(C)n1c(=O)c2cnc(Nc3ccc(N4CCN(C)CC4)cc3)nc2n1-c1cccc(N=S(C)(C)=O)n1` [Example 20, 1-(6-{[Dimethyl(oxo)-λ^6-sulfanylidene]amino}pyridin-2-yl)-6-{[4-(4-methylpiperazin-1-yl)phenyl]amino}-2-(propan-2-yl)-1H,2H,3H-pyrazolo[3,4-d]pyrimidin-3-one]?
**A.** IC50 ([1]; Table 6, Present Invention, read-out: Wee-1/nM): 1.4 nM; IC50 ([1]; read-out: Wee1 IC50): 1.4 nM; EC50 [2, 7]: 47 nM; EC50 ([2]; Table 6, Present Invention, read-out: ELISA/nM): 47 nM

**Q.** Which IC50 ([1]; read-out: Wee1 IC50) does the source give for `C=CCn1c(=O)c2cnc(Nc3ccc(N4CCOCC4)c(C)c3)nc2n1-c1cccc(N=S(C)(C)=O)n1` [Example 21, 1-(6-{[Dimethyl(oxo)-λ^6-sulfanylidene]amino}pyridin-2-yl)-6-{[3-methyl-4-(morpholin-4-yl)phenyl]amino}-2-(prop-2-en-1-yl)-1H,2H,3H-pyrazolo[3,4-d]pyrimidin-3-one] here?
**A.** Its IC50 is 0.1 nM.

**Q.** What about the EC50 [2, 7] of the same compound?
**A.** The EC50 was 2 nM.

**Q.** What does the source list for `C=CCn1c(=O)c2cnc(Nc3ccc(N4CCNCC4)c(C)c3)nc2n1-c1cccc(N=S(C)(C)=O)n1` [Example 26, 1-(6-{[Dimethyl(oxo)-λ^6-sulfanylidene]amino}pyridin-2-yl)-6-{[3-methyl-4-(piperazin-1-yl)phenyl]amino}-2-(prop-2-en-1-yl)-1H,2H,3H-pyrazolo[3,4-d]pyrimidin-3-one]?
**A.** IC50 ([1]; read-out: Wee1 IC50): 0.4 nM; EC50 [2, 7]: 4 nM

**Q.** For `C=CCn1c(=O)c2cnc(Nc3ccc(N4CCO[C@H](COC)C4)cc3)nc2n1-c1cccc(N=S(C)(C)=O)n1` [Example 54, 1-(6-{[Dimethyl(oxo)-λ^6-sulfanylidene]amino}pyridin-2-yl)-6-({4-[(2S)-2-(methoxymethyl)morpholin-4-yl]phenyl}amino)-2-(prop-2-en-1-yl)-1H,2H,3H-pyrazolo[3,4-d]pyrimidin-3-one], which IC50 ([1]; read-out: Wee1 IC50) is on record?
**A.** The IC50 was 0.3 nM.

**Q.** What about the EC50 [2, 7] of the same compound?
**A.** The EC50 was 5 nM.

**Q.** What about the EC50 [2, 9] of the same compound?
**A.** Its EC50 is 5 nM.

**Q.** And the EC50 [3]?
**A.** The EC50 was 32 nM.

**Q.** What about the EC50 [4] of the same compound?
**A.** The EC50 was 17 nM.

**Q.** And the EC50 [5]?
**A.** The EC50 was 16 nM.

**Q.** And the EC50 [6]?
**A.** The EC50 was 35 nM.

**Q.** How did the IC50 [1, 8] turn out when `C=CCn1c(=O)c2cnc(Nc3ccc(N(C)C)cc3)nc2n1-c1cccc(N=S(C)(C)=O)n1` [Example 57, 1-(6-{[Dimethyl(oxo)-λ^6-sulfanylidene]amino}pyridin-2-yl)-6-{[4-(dimethylamino)phenyl]amino}-2-(prop-2-en-1-yl)-1H,2H,3H-pyrazolo[3,4-d]pyrimidin-3-one] was run?
**A.** The IC50 was 0.2 nM.

**Q.** And the IC50 ([1]; read-out: Wee1 IC50)?
**A.** Its IC50 is 0.2 nM.

**Q.** What about the EC50 [2, 7] of the same compound?
**A.** The EC50 was 6 nM.

**Q.** `C=CCn1c(=O)c2cnc(Nc3ccc(N4C[C@H]5COC[C@H]5C4)cc3)nc2n1-c1cccc(N=S(C)(C)=O)n1` [Example 67, 6-({4-[(3aR,6aS)-Hexahydro-1H-furo[3,4-c]pyrrol-5-yl]phenyl}amino)-1-(6-{[dimethyl(oxo)-λ^6-sulfanylidene]amino}pyridin-2-yl)-2-(prop-2-en-1-yl)-1H,2H, 3H-pyrazolo[3,4-d]pyrimidin-3-one] was tested. Which IC50 ([1]; read-out: Wee1 IC50) did it give?
**A.** The IC50 was 0.1 nM.

**Q.** And the EC50 [2, 7]?
**A.** The EC50 was 7 nM.

**Q.** How did the IC50 ([1]; read-out: Wee1 IC50) turn out when `C=CCn1c(=O)c2cnc(Nc3ccc(N4CCN[C@H](COC)C4)cc3)nc2n1-c1cccc(N=S(C)(C)=O)n1` [Example 76, 1-(6-{[Dimethyl(oxo)-λ^6-sulfanylidene]amino}pyridin-2-yl)-6-({4-[(3S)-3-(methoxymethyl)piperazin-1-yl]phenyl}amino)-2-(prop-2-en-1-yl)-1H,2H, 3H-pyrazolo[3,4-d]pyrimidin-3-one] was run?
**A.** The IC50 was 0.6 nM.

**Q.** And the EC50 [2, 7]?
**A.** The EC50 was 28 nM.

**Q.** Which IC50 ([1]; read-out: Wee1 IC50) does the source give for `C=CCn1c(=O)c2cnc(Nc3ccc(N4CCOCC4)cc3)nc2n1-c1cccc(CN=S(C)(C)=O)n1` [Example 91, 1-[6-({[Dimethyl(oxo)-λ^6-sulfanylidene]amino}methyl)pyridin-2-yl]-6-{[4-(morpholin-4-yl)phenyl]amino}-2-(prop-2-en-1-yl)-1H,2H,3H-pyrazolo[3,4-d]pyrimidin-3-one] here?
**A.** The IC50 was 22.1 nM.

**Q.** `CS(C)(=O)=Nc1cccc(-n2c3nc(Nc4ccc(N5CCOCC5)cc4)ncc3c(=O)n2CC2CC2)n1` [Example 92, 2-(Cyclopropylmethyl)-1-(6-{[dimethyl(oxo)-λ^6-sulfanylidene]amino}pyridin-2-yl)-6-{[4-(morpholin-4-yl)phenyl]amino}-1H,2H,3H-pyrazolo[3,4-d]pyrimidin-3-one] was tested. Which IC50 ([1]; read-out: Wee1 IC50) did it give?
**A.** Its IC50 is 8.8 nM.

**Q.** How did the IC50 ([1]; read-out: Wee1 IC50) turn out when `C#CCn1c(=O)c2cnc(Nc3cnn(C(C)C)c3)nc2n1-c1cccc(N=S(C)(C)=O)n1` [Example 94, 1-(6-((Dimethyl(oxo)-λ^6-sulfaneylidene)amino)pyridin-2-yl)-6-((1-isopropyl-1H-pyrazol-4-yl)amino)-2-(prop-2-yn-1-yl)-1,2-dihydro-3H-pyrazolo[3,4-d]pyrimidin-3-one] was run?
**A.** Its IC50 is 1.2 nM.

**Q.** For `C=CCn1cc(Nc2ncc3c(=O)n(CC=C)n(-c4cccc(N=S(C)(C)=O)n4)c3n2)cn1` [Example 95, 2-Allyl-6-((1-allyl-1H-pyrazol-4-yl)amino)-1-(6-((dimethyl(oxo)-λ^6-sulfaneylidene)amino)pyridin-2-yl)-1,2-dihydro-3H-pyrazolo[3,4-d]pyrimidin-3-one], which IC50 ([1]; read-out: Wee1 IC50) is on record?
**A.** The IC50 was 0.8 nM.

**Q.** Which IC50 ([1]; read-out: Wee1 IC50) does the source give for `C=CCn1c(=O)c2cnc(Nc3cnn(C4CCCCC4)c3)nc2n1-c1cccc(N=S(C)(C)=O)n1` [Example 96, 2-Allyl-6-((1-cyclohexyl-1H-pyrazol-4-yl)amino)-1-(6-((dimethyl(oxo)-λ^6-sulfaneylidene)amino)pyridin-2-yl)-1,2-dihydro-3H-pyrazolo[3,4-d]pyrimidin-3-one] here?
**A.** The IC50 was 0.4 nM.
